Assay type: physicochemical
Method: The specific experimental method was as follows. […] The chloroform solution was mixed with 0.5 ml of chloroform, from which 0.5 ml of diluent was taken and two-fold serial dilution was performed by using chloroform. Then 0.5 ml of a chloroform solution of paclitaxel (10 mg/ml) was added to the above-mentioned sample after the two-fold serial dilution, and then left in a hood to be naturally volatilized overnight. Crystal formation in the dried sample was observed and recorded.

solubility of paclitaxel (crystal formation): +
Substance: castor oil

From patent US20220111056A1, “DRUG-LOADED EMULSION” (ZHEJIANG ZHIDA PHARMACEUTICAL CO., LTD., priority 2019, published 2022)
